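Each compound was tested at five concentrations against cells in 96-well plates for 48 hours. Abbreviation: GI50, concentration required for 50% inhibition of growth. TGI denotes the concentration required for complete inhibition of growth.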
How the values were obtained:
Assay in all cases: NCI-60 cell line screen, 48 h
[1] = system: HOP-62 NSCLC
[2] = system: RXF 393 renal
[3] = system: SN12C renal
[4] = system: A549 NSCLC
[5] = system: ACHN renal
[6] = system: SF-539 CNS
[7] = system: SK-MEL-5 melanoma
[8] = system: HCC-2998 colon

Structure (SMILES)	GI50 [1]	TGI [1]	GI50 [2]	TGI [2]	GI50 [3]	TGI [3]	GI50 [4]	TGI [4]	GI50 [5]	TGI [5]	GI50 [6]	TGI [6]	GI50 [7]	TGI [7]	GI50 [8]	TGI [8]
COc1ccc(C(=O)/C=C/c2cc3ccccc3[nH]c2=O)cc1	20.5 µM	42.6 µM	19.7 µM	> 44 µM	21.1 µM	> 100 µM	20 µM	> 100 µM	22.9 µM	> 55.1 µM	18.7 µM	39.8 µM	25 µM	> 56.6 µM	17.3 µM	31.3 µM
[N-]=[N+]=NC1(N=[N+]=[N-])C(=O)NN=C(c2ccccc2)C1=O (stereo not drawn)		> 100 µM		> 100 µM		> 100 µM		> 100 µM		> 100 µM		> 100 µM				> 100 µM
C/C(=C\c1ccn(-c2ccc(N)c(C(F)(F)F)c2)n1)[C@@H]1C[C@@H]2O[C@]2(C)CCC[C@H](C)[C@H](O)[C@@H](C)C(=O)C(C)(C)[C@@H](O)CC(=O)O1	0.0212 µM	> 20.3 µM	0.0111 µM	0.435 µM	0.0237 µM	> 32.5 µM	< 0.0116 µM	> 32.5 µM	0.0268 µM	> 29.2 µM	0.00984 µM	0.593 µM	< 0.0108 µM	3.78 µM	0.0317 µM	> 20.4 µM
Nc1ncc(-c2cnn(C3CCNCC3)c2)cc1-c1nc2ccccc2o1	0.915 µM	5.19 µM	0.485 µM	2.25 µM	0.478 µM	4.41 µM	1.2 µM	4.27 µM	0.86 µM	2.71 µM	1.5 µM	2.83 µM	2.03 µM	5.47 µM	1.18 µM	3.09 µM
C=C1C(=O)O[C@@H]2[C@H]1CC[C@H](C)[C@]1(O)CCC(=O)[C@@]21C		> 10 µM		> 10 µM		> 10 µM		> 10 µM				> 10 µM		> 10 µM		> 10 µM
COc1ccc(C(=S)c2cc(OC)c(OC)c(OC)c2)cc1OC(=O)CCl	0.0614 µM	> 100 µM	0.022 µM	> 77.3 µM	0.0241 µM	> 100 µM	0.0849 µM	> 100 µM	0.0214 µM	61.5 µM	< 0.011 µM	0.0499 µM	0.0141 µM	0.0616 µM	0.0418 µM	> 100 µM
O=C(O)C1C2C=CC(O2)C1C(=O)Nc1ccccc1 (stereo not drawn)		> 100 µM		> 100 µM		> 100 µM		> 100 µM		> 100 µM				> 100 µM		
COc1cc(N2CCC(N3CCN(C)CC3)CC2)ccc1Nc1ncc(Cl)c(Nc2ccccc2P(C)(C)=O)n1	0.797 µM	> 32 µM	0.642 µM	2.4 µM	1.03 µM	> 100 µM	1.21 µM	14.1 µM	1.12 µM	9.65 µM	2.1 µM	7.5 µM	11.9 µM	> 100 µM	3.99 µM	> 100 µM
Nc1ccccc1NC(=O)c1ccc(CSc2nc(N3CCOCC3)c3cccn3n2)cc1	1.49 µM	45.9 µM	0.464 µM	2.51 µM	1.38 µM	> 100 µM	0.977 µM	> 100 µM	0.863 µM	> 100 µM	0.773 µM	> 100 µM	0.415 µM	1.61 µM	2 µM	7.41 µM
CCCCCCCCN(CCCCCCCC)C(=N)c1ccnc2ccccc12	1.42 µM	2.88 µM	0.874 µM	2.36 µM	1.16 µM	2.68 µM	1.58 µM	3.11 µM	1.37 µM	2.78 µM	1.54 µM	2.99 µM				
CCOC(=O)C12CCCC1(O)N(NC(=O)c1cccc(Cl)c1)C(C)=C2C(=O)OC (stereo not drawn)		> 100 µM		> 100 µM		> 100 µM		> 100 µM		> 100 µM		> 100 µM		> 100 µM		> 100 µM
C#C[C@@]1(O)[C@@H](CO)O[C@@H](n2cc(Cl)c3c(N)ncnc32)[C@@H]1O	0.254 µM	1.97 µM	0.299 µM	0.813 µM							0.324 µM	1.45 µM			0.186 µM	0.532 µM
CCc1ccc(C2=C/C(=C/c3ccc(Cl)cc3)C(=O)N2CCc2ccc(S(N)(=O)=O)cc2)cc1	2.42 µM	5.86 µM	1.74 µM	3.79 µM			2.6 µM	7.37 µM	1.94 µM	4.23 µM	2.11 µM	4.12 µM	1.63 µM	3.07 µM	2.59 µM	7.2 µM
Cc1ccc(-c2csc(N(C(=O)N3CCN(c4cc5c(cc4F)c(=O)c(C(=O)O)cn5C4CC4)CC3)c3ccccc3)n2)cc1	0.389 µM	> 46.3 µM	0.368 µM	20.5 µM			0.372 µM	> 100 µM	0.278 µM	> 100 µM			0.541 µM	> 100 µM	0.537 µM	> 100 µM
O=C(O)C(=O)Cc1ccc2c(c1)OCO2		> 100 µM		> 100 µM		> 100 µM		> 100 µM		> 100 µM		> 100 µM		> 100 µM		
O=c1[nH]cnc2c(C3OC(CO)C(O)C3O)[nH]nc12 (stereo not drawn)		> 100 µM		> 100 µM		> 100 µM				> 100 µM		> 100 µM		> 100 µM		> 100 µM
C[C@H](c1ccc(Cl)cc1N)N1C(=O)c2cc(I)ccc2N(CCCN2CCN(C)CC2)C(=O)[C@@H]1c1ccc(Cl)cc1					1.59 µM	3.03 µM	1.3 µM	2.57 µM	1.22 µM	2.5 µM			1.57 µM	2.92 µM	1.63 µM	3.03 µM
CC(C)(Cl)CCC1=C(Cl)C(=O)c2ccccc2C1=O	4.71 µM	17 µM			3.64 µM	13.5 µM	3.2 µM	11 µM	1.65 µM	3.03 µM	2.01 µM	4.58 µM	1.78 µM	3.57 µM		
CC(C)C1C(=O)N2CCCC2C2(O)OC(NC(=O)C3C=C4c5cccc6[nH]cc(c56)CC4N(C)C3)(C(C)C)C(=O)N12 (stereo not drawn)		> 100 µM				> 100 µM		67.3 µM		43.4 µM		52.4 µM		57.9 µM		42.9 µM
